Key:
[1] = target: T1, catalytic domain of MMP-13 enzyme (Homo sapiens, UniProt P45452); experiment: Assay for determining MMP-13 inhibition (fluorescent substrate); format: biochemical; conditions: read-out: MMP-13 Activity (IC50 MMP-13), Group
T1 construct: catalytic domain of MMP-13 enzyme (produced by Alantos or commercially available from Invitek (Berlin), Cat. # 30100812); purchased Invitek (Berlin) 30100812
Procedure: The typical assay for MMP-13 activity is carried out in assay buffer comprised of 50 mM Tris, pH 7.5, 150 mM NaCl, 5 mM CaCl2 and 0.05% Brij-35. Different concentrations of tested compounds are prepared in assay buffer in 50 μL aliquots. 10 μL of a 50 nM stock solution of catalytic domain of MMP-13 enzyme (produced by Alantos or commercially available from Invitek (Berlin), Cat. # 30100812) is added to the compound solution. The mixture of enzyme and compound in assay buffer is thoroughly mixed and incubated for 10 min at room temperature. Upon the completion of incubation, the assay is started by addition of 40 μl of a 12.5 μM stock solution of MMP-13 fluorescent substrate (Calbiochem, Cat. No. 444235). The time-dependent increase in fluorescence is measured at the 320 nm excitation and 390 nm emission by automatic plate multireader. The IC50 values are calculated from the initial reaction rates.

activated MMP-8 enzyme = target: T2, activated MMP-8 enzyme (Homo sapiens, UniProt P22894); experiment: Assay for determining MMP-8 inhibition (OmniMMP fluorescent substrate); format: biochemical; conditions: read-out: MMP-8 Activity (IC50 MMP-8), Group
T2 construct: purchased Calbiochem 444229
Procedure: The typical assay for MMP-8 activity is carried out in assay buffer comprised of 50 mM Tris, pH 7.5, 150 mM NaCl, 5 mM CaCl2 and 0.05% Brij-35. Different concentrations of tested compounds are prepared in assay buffer in 50 μL aliquots. 10 μL of a 50 nM stock solution of activated MMP-8 enzyme (Calbiochem, Cat. No. 444229) is added to the compound solution. The mixture of enzyme and compound in assay buffer is thoroughly mixed and incubated for 10 min at 37° C. Upon the completion of incubation, the assay is started by addition of 40 μL of a 10 μM stock solution of OmniMMP fluorescent substrate (Biomol, Cat. No. P-126). The time-dependent increase in fluorescence is measured at the 320 nm excitation and 390 nm emission by an automatic plate multireader at 37° C. The IC50 values are calculated from the initial reaction rates.

T2 sequence (P22894 101-467): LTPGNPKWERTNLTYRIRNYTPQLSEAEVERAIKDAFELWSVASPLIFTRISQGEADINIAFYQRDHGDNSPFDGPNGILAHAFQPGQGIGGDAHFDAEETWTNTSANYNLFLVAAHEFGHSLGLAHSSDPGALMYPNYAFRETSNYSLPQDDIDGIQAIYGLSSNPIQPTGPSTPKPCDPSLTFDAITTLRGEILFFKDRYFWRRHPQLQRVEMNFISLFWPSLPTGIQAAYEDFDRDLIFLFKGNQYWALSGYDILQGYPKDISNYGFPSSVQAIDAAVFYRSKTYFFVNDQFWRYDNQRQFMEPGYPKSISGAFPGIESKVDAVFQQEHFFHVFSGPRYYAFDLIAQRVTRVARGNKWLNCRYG

Structure (SMILES)	IC50 [1] [nM]	IC50 (activated MMP-8 enzyme) [nM]
CCOC(=O)Cc1c([N+](=O)[O-])sc2nc(C(=O)NCc3ccc4c(c3)CN(c3c(N)c(=O)c3=O)CC4)[nH]c(=O)c12 [2/164]	100 to 20000	–
Cn1ncc2c(=O)[nH]c(C(=O)NCc3ccc4c(c3)NC(=O)CO4)nc21 [2/111]	< 100	–
O=C1COc2ccc(CNC(=O)c3nc4nonc4c(=O)[nH]3)cc2N1 [39/3]	100 to 20000	–
NC(=O)[C@@H]1CCCN1c1cccc2nc(C(=O)NCc3ccc4c(c3)NC(=O)CO4)[nH]c(=O)c12 [36/8]	< 100	–
Cc1nsc2nc(C(=O)NCc3ccc4c(c3)NC(=O)CO4)[nH]c(=O)c12 [2/136]	100 to 20000	–
O=C1COc2ccc(CNC(=O)c3nc4ccc(C(=O)Nc5ccccc5)cc4c(=O)[nH]3)cc2N1 [31/1]	100 to 20000	–
O=C1COc2ccc(CNC(=O)c3nc4scc(-c5ccccc5Cl)c4c(=O)[nH]3)cc2N1 [2/101]	< 100	250 to 20000
Cc1sc2nc(C(=O)NCc3ccc4c(c3)NC(=NO)CO4)[nH]c(=O)c2c1C [2/275]	< 100	< 250
CCOC(=O)c1c(C)sc2nc(C(=O)NCc3ccc4c(c3)NC(=O)CO4)[nH]c(=O)c12 [2/22]	< 100	250 to 20000
O=C1COc2ccc(CNC(=O)c3nc4scc(-c5cccnc5)c4c(=O)[nH]3)cc2N1 [2/115]	< 100	250 to 20000
CCOC(=O)c1sc2nc(C(=O)NCc3ccc4c(c3)NC(=O)CO4)[nH]c(=O)c2c1C [2/28]	< 100	250 to 20000
Cc1nc2c(=O)[nH]c(C(=O)NCc3ccc4c(c3)CN(c3c(N)c(=O)c3=O)CC4)nc2s1 [2/180]	< 100	–
O=C(NCc1ccc2c(c1)OC(F)(F)O2)c1nc2ccccc2c(=O)[nH]1 [2/6]	100 to 20000	250 to 20000
Cc1sc2nc(C(=O)NCc3ccc4c(c3)NC(=O)CO4)[nH]c(=O)c2c1C(=O)O [4/1]	100 to 20000	–
COc1cccc2c(=O)[nH]c(C(=O)NCc3ccc4c(c3)NC(=O)CO4)nc12 [39/21]	100 to 20000	–
Cc1noc2nc(C(=O)NCc3ccc4c(c3)NC(=O)CO4)[nH]c(=O)c12 [39/12]	100 to 20000	–
Cc1c(C(=O)Nc2ccccc2)sc2nc(C(=O)NCc3ccc4c(c3)NC(=O)CO4)[nH]c(=O)c12 [2/62]	< 100	250 to 20000
NC(=O)c1ccc2c(=O)[nH]c(C(=O)NCc3ccc4c(c3)NC(=O)CO4)nc2c1 [13/1]	100 to 20000	–
Cc1csc(-c2csc3nc(C(=O)NCc4ccc5c(c4)NC(=O)CO5)[nH]c(=O)c23)n1 [2/379]	< 100	–
COc1cc2nc(C(=O)NCc3ccc4c(c3)NC(=O)CO4)[nH]c(=O)c2cc1OC [2/65]	100 to 20000	–

Structure (SMILES)	IC50 [1] [nM]	IC50 (activated MMP-8 enzyme) [nM]
O=C1COc2ccc(CNC(=O)c3nc4cc([N+](=O)[O-])ccc4c(=O)[nH]3)cc2N1 [39/22]	< 100	< 250
O=C1COc2ccc(CNC(=O)c3nc4ccc(CNC(=O)C56C7C8C5C5C6C7C85C(=O)O)cc4c(=O)[nH]3)cc2N1 (centres unmarked) [4/3]	< 100	< 250
O=C1COc2ccc(CNC(=O)c3nc4c(Br)cc(F)cc4c(=O)[nH]3)cc2N1 [39/23]	< 100	–
O=C1COc2ccc(CNC(=O)c3nc4snnc4c(=O)[nH]3)cc2N1 [39/6]	100 to 20000	–
O=C1COc2ccc(CNC(=O)c3nc4cccc(C(F)(F)F)c4c(=O)[nH]3)cc2N1 [39/1]	< 100	–
Cn1c(C(=O)NCc2ccc3c(c2)NC(=O)CO3)nc2ccccc2c1=O [2/50]	100 to 20000	–
O=C(Cc1csc2nc(C(=O)NCc3ccc4c(c3)NC(=O)CO4)[nH]c(=O)c12)NCc1ccc2c(c1)NC(=O)CO2 [2/149]	< 100	< 250
Cc1c(C(=O)O)sc2nc(C(=O)NCc3ccc4c(c3)NC(=O)CO4)[nH]c(=O)c12 [4/2]	100 to 20000	–
O=C1COc2cc(CNC(=O)c3nc4ccccc4c(=O)[nH]3)ccc2N1 [2/205]	100 to 20000	–
Cc1sc2nc(C(=O)NCc3cc(Br)c4c(c3)NC(=O)CO4)[nH]c(=O)c2c1C [2/281]	< 100	–
C[C@H](O)CNc1cccc2nc(C(=O)NCc3ccc4c(c3)NC(=O)CO4)[nH]c(=O)c12 [36/13]	–	< 250
C[C@@H](Nc1cccc2nc(C(=O)NCc3ccc4c(c3)NC(=O)CO4)[nH]c(=O)c12)C(=O)OC(C)(C)C [36/6]	–	< 250
O=C1COc2ccc(CNC(=O)c3nc4scc(-c5ccc(-c6ccccc6)cc5)c4c(=O)[nH]3)cc2N1 [2/138]	< 100	–
O=C1COc2cc(CNC(=O)c3nc4ccc(Cl)cc4c(=O)[nH]3)ccc2N1 [2/27]	100 to 20000	250 to 20000
O=C(NCc1ccc2c(c1)CCO2)c1nc2ccccc2c(=O)[nH]1 [2/7]	< 100	250 to 20000
C[C@@H](O)CNc1cccc2nc(C(=O)NCc3ccc4c(c3)NC(=O)CO4)[nH]c(=O)c12 [36/12]	< 100	< 250
Cc1cccc2nc(C(=O)NCc3ccc(F)c(CNc4c(N)c(=O)c4=O)c3)[nH]c(=O)c12 [2/17]	–	250 to 20000
Cc1nc2c(=O)[nH]c(C(=O)NCc3ccc4c(c3)NC(=O)CO4)nc2s1 [2/179]	< 100	–
Cc1c(CCC(=O)O)sc2nc(C(=O)NCc3ccc4c(c3)NC(=O)CO4)[nH]c(=O)c12 [4/8]	–	< 250

Next, values leading:

IC50 [1] [nM]	IC50 (activated MMP-8 enzyme) [nM]	Structure (SMILES)
100 to 20000	–	CC(=O)N1CCOc2ccc(CNC(=O)c3nc4sc(CO)c(C)c4c(=O)[nH]3)cc21 [Example 25]
< 100	–	Cc1c(CO)sc2nc(C(=O)NCc3ccc4c(c3)NC(=O)CO4)[nH]c(=O)c12 [Example 20a]
–	250 to 20000	Cc1cccc2nc(C(=O)NCc3cccc(CNc4c(N)c(=O)c4=O)c3)[nH]c(=O)c12 [Example 2/15]
< 100	< 250	O=C(O)CCC(=O)NCc1ccc2nc(C(=O)NCc3ccc4c(c3)NC(=O)CO4)[nH]c(=O)c2c1 [Example 17]
< 100	< 250	Cc1c(C(C)O)sc2nc(C(=O)NCc3ccc4c(c3)NC(=O)CO4)[nH]c(=O)c12 (centres unmarked) [Example 21]
100 to 20000	–	Cc1sc2nc(C(=O)NCc3ccc4c(c3)NS(=O)(=O)CO4)[nH]c(=O)c2c1C [Example 38]
< 100	–	O=C1COc2ccc(CNC(=O)c3nc4sccc4c(=O)[nH]3)cc2N1 [Example 1]
< 100	–	O=C1COc2ccc(CNC(=O)c3nc4ccc(C#Cc5ccccc5)cc4c(=O)[nH]3)cc2N1 [Example 8/1]
< 100	< 250	CC(=NO)c1sc2nc(C(=O)NCc3ccc4c(c3)NC(=O)CO4)[nH]c(=O)c2c1C [Example 16]
< 100	–	NCc1ccc2nc(C(=O)NCc3ccc4c(c3)NC(=O)CO4)[nH]c(=O)c2c1 [Example 15]
< 100	250 to 20000	O=C1COc2ccc(CNC(=O)c3nc4ccc([N+](=O)[O-])cc4c(=O)[nH]3)cc2N1 [Example 2/57]
< 100	250 to 20000	O=C(NCc1ccc2c(c1)OCO2)c1nc2ccccc2c(=O)[nH]1 [Example 2/5]
–	< 250	NC(=O)Cc1csc2nc(C(=O)NCc3ccc4c(c3)NC(=O)CO4)[nH]c(=O)c12 [Example 2/156]
< 100	–	CC(=O)OCc1sc2nc(C(=O)NCc3ccc4c(c3)N(C(C)=O)CCO4)[nH]c(=O)c2c1C [Example 24]
100 to 20000	–	CCOC(=O)c1sc2nc(C(=O)NCc3ccc4c(c3)NCCO4)[nH]c(=O)c2c1C [Example 20b]
< 100	–	O=C1COc2ccc(CNC(=O)c3nc4ccc(C(=O)O)cc4c(=O)[nH]3)cc2N1 [Example 3]
< 100	–	O=C1COc2ccc(CNC(=O)c3nc4ccc(-c5nnn[nH]5)cc4c(=O)[nH]3)cc2N1 [Example 11]
